Key:
GlyT-1 [1] = target: T1, GlyT-1 (Rattus norvegicus, UniProt P28572); assay: Drug inhibition of [3H]CHIBA-3007 binding to rat brain membranes; details: [3H]CHIBA-3007 (1 nM), 120 min room temperature, mean ± S.E.M., n=3
T1 construct: the tissues of whole brains or each specific brain region were homogenized; from tissue; host or cells: rat brain (whole brain or dissected regions; male Crl:CD (SD) rats)
T1 sequence (P28572 1-638): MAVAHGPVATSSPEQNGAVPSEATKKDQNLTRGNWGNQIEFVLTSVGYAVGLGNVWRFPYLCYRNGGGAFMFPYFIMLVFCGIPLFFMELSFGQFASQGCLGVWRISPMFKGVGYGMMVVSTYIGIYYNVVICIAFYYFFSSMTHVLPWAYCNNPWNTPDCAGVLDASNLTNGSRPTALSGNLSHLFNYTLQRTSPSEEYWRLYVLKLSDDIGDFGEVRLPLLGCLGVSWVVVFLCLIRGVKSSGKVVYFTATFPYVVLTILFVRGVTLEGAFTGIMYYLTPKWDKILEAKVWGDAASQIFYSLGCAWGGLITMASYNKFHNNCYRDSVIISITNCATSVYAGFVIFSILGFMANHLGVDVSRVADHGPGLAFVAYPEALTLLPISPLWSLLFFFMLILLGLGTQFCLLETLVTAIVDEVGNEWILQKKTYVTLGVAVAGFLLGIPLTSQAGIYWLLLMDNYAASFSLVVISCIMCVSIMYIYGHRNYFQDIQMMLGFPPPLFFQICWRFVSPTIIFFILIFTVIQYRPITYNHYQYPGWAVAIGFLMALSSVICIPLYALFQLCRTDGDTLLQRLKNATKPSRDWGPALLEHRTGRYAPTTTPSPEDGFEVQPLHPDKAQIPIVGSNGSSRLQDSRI
Experimental: The supernatant was discarded and the pellet was re-suspended, homogenized and centrifuged as above. The membrane pellet was washed and re-suspended in ice-cold HEPES buffer and was then centrifuged three times. The final pellet was re-suspended in 15 volumes of the buffer (120 mM NaCl, 2 mM KCl, 1 mM CaCl2, 1 mM MgCl2 10 mM HEPES, pH 7.5 at room temperature).
The binding reaction was terminated by rapid vacuum filtration onto Whatman GF/B glass filters pretreated with 0.5% polyethyleneimine (Sigma-Aldrich Co.) using a 24-channel cell harvester (Brandell, Gaithersburg, MD). The filters were washed with 5 mL of ice-cold assay buffer 3 times, and placed in vials with 4 mL scintillation cocktail. The radioactivity trapped by the filters was determined using a liquid scintillation counter (Beckman LS-6500; Beckman Coulter K.K., Tokyo, Japan).
(§1) The data are shown as the mean ± standard error of the mean (S.E.M.). The dissociation constant (Kd) and maximal binding (Bmax) values from saturation binding and the IC50 values from binding displacement by each drug were determined using the program GraphPad Prism (GraphPad Software, San Diego, CA). […] Correlation was analyzed by Pearson's Correlation Coefficient (PASW Statistics 19, Tokyo, Japan). Significance was set at p<0.05.

Muscarinic M2 = assay: Radioligand binding, [3H]AF-DX-384; details: Muscarinic M2, [3H]AF-DX-384, 1 µM, duplicate
Experimental: (§2) Table S1. Inhibition effect of CHIBA-3007 (1 µM) on radioligand binding to various receptors
(§3) Test substance concentration: 1 µM, Positive substance concentration : 10 µM
(§4) Data are expressed as the mean values of duplicate samples.
(§5) The % inhibition was calculated from “100 – binding ratio”.
(§6) Binding ratio: [(B - N) / (B0 - N)] × 100 (%) B: Bound radioactivity in the presence of test substance and positive substance (individual value), B0: Total bound radioactivity in the absence of test substance and positive substance (mean value), N: Non-specific bound radioactivity (mean value)

GABA -A (Agonist site) = assay: Radioligand binding, [3H]Muscimol; details: duplicate
Experimental: as §2, §3, §4, §5, §6

Histamine H1 (Central) = assay: Radioligand binding, [3H]Pyrilamine; details: duplicate
Experimental: as §2, §3, §4, §5, §6

[2] = tested on: β-Adrenergic (Non-selective); assay: Radioligand binding, [3H]DHA; details: duplicate
Experimental: as §2, §3, §4, §5, §6

Nicotinic Ni = assay: Radioligand binding, [3H]Nicotine; details: duplicate
Experimental: as §2, §3, §4, §5, §6

[3] = tested on: Glycine (Strychnine sensitive); assay: Radioligand binding, [3H]Strychnine; details: duplicate
Experimental: as §2, §3, §4, §5, §6

Adenosine A2 = assay: Radioligand binding, [3H]CGS21680; details: Adenosine A2, [3H]CGS21680, 1 µM, duplicate
Experimental: as §2, §3, §4, §5, §6

Adenosine A1 = assay: Radioligand binding, [3H]DPCPX; details: Adenosine A1, [3H]DPCPX, duplicate
Experimental: as §2, §3, §4, §5, §6

GABA- A (BZ central) = assay: Radioligand binding, [3H]Flunitrazepam; details: duplicate
Experimental: as §2, §3, §4, §5, §6

[4] = tested on: Glutamate (NMDA glycine site); assay: Radioligand binding, [3H]MDL105519; details: [3H]MDL105519, 1 µM, duplicate
Experimental: as §2, §3, §4, §5, §6

Histamine H3 = assay: Radioligand binding, [3H]N-methyl histamine; details: Histamine H3, [3H]N-methyl histamine, duplicate
Experimental: as §2, §3, §4, §5, §6

Opiate (Non-selective) = assay: Radioligand binding, [3H]Naloxone; details: duplicate
Experimental: as §2, §3, §4, §5, §6

[5] = tested on: Glutamate (NMDA phencyclidine site); assay: Radioligand binding, [3H]MK-801; details: [3H]MK-801, 1 µM, duplicate
Experimental: as §2, §3, §4, §5, §6

Serotonin 5-HT2A = assay: Radioligand binding, [3H]Ketanserin; details: duplicate
Experimental: as §2, §3, §4, §5, §6

Dopamine D1 = assay: Radioligand binding, [3H]SCH23390; details: Dopamine D1, [3H]SCH23390, 1 µM, duplicate
Experimental: as §2, §3, §4, §5, §6

[6] = tested on: α2-Adrenergic (Non-selective); assay: Radioligand binding, [3H]RX821002; details: [3H]RX821002, 1 µM, duplicate
Experimental: as §2, §3, §4, §5, §6

[7] = tested on: Glutamate (Non-selective); assay: Radioligand binding, [3H]Glutamic acid; details: duplicate
Experimental: as §2, §3, §4, §5, §6

GABA -B = assay: Radioligand binding, [3H]GABA; details: duplicate
Experimental: as §2, §3, §4, §5, §6

Serotonin 5-HT3 (Human) = assay: Radioligand binding, [3H]GR65630; details: [3H]GR65630, 1 µM, duplicate
Experimental: as §2, §3, §4, §5, §6

Glutamate (Kainate) = assay: Radioligand binding, [3H]Kainic acid; details: duplicate
Experimental: as §2, §3, §4, §5, §6

[8] = tested on: α1-Adrenergic (Non-selective); assay: Radioligand binding, [3H]Prazosin; details: duplicate
Experimental: as §2, §3, §4, §5, §6

[9] = 28 standard target binding profile; details: 1 µM
Experimental: as §2, §3, §4, §5, §6

Glutamate (AMPA) = assay: Radioligand binding, [3H]AMPA; details: duplicate
Experimental: as §2, §3, §4, §5, §6

Sigma (Non-selective) = assay: Radioligand binding, [3H]DTG; details: duplicate
Experimental: as §2, §3, §4, §5, §6

GlyT-1 [10] = target: T1, GlyT-1; assay: Inhibition of [14C]glycine uptake in rat brain membranes; format: biochemical
Experimental: The homogenate was centrifuged at 1,000 g for 10 min to remove nuclei and debris, and then the supernatant was centrifuged again at 20,000 g for 20 min (synaptosomal P2 fraction). The pellet was washed and re-suspended in ice-cold 0.32 M sucrose, buffered with 10 mM HEPES (pH 7.4) and centrifuged again at 20,000 g for 20 min (washed P2 fraction). The pellet was re-suspended in 10 volumes of assay buffer with the following composition: 10 mM HEPES buffer (pH 7.4) containing 140 mM NaCl, 5.5 mM KCl, 1.8 mM CaCl2, 0.8 mM MgSO4, 5 mM glucose and 5 mM L-alanine (HB). The protein concentrations were measured by using a DC protein assay kit (Bio-Rad Laboratories Inc., Tokyo, Japan).
Non-specific uptake was estimated in the presence of 30 µM SSR504734. […] The filters were washed by buffer, and the radioactivity trapped by the filters was determined using a liquid scintillation counter as described above.
as §1

Dopamine D2 = assay: Radioligand binding, [3H]Spiperone; details: Dopamine D2, [3H]Spiperone, duplicate
Experimental: as §2, §3, §4, §5, §6

[11] = tested on: Glutamate (NMDA agonist site); assay: Radioligand binding, [3H]CGP-39653; details: [3H]CGP-39653, 1 µM, duplicate
Experimental: as §2, §3, §4, §5, §6

Histamine H2 = assay: Radioligand binding, [3H]Cimetidine; details: Histamine H2, [3H]Cimetidine, duplicate
Experimental: as §2, §3, §4, §5, §6

Serotonin 5-HT1A = assay: Radioligand binding, [3H]8-OH DPAT; details: duplicate
Experimental: as §2, §3, §4, §5, §6

Muscarinic M1 = assay: Radioligand binding, [3H]Pirenzepine; details: Muscarinic M1, [3H]Pirenzepine, duplicate
Experimental: as §2, §3, §4, §5, §6

CN1CCCC[C@@H]1[C@@H](NC(=O)c1nccc(C(F)(F)F)c1Cl)c1ccsc1 [CHIBA-3007, 3-Chloro-N-((S)-((R)-1-methylpiperidin-2-yl)(thiophen-3-yl)methyl)-4-(trifluoromethyl)picolinamide]
Ki (GlyT-1 [1]): 2.8 ± 0.17 nM | % Inhibition (1 µM) (Muscarinic M2): 16.31% | % Inhibition (1 µM) (GABA -A (Agonist site)): 0.20% | % Inhibition (1 µM) (Histamine H1 (Central)): 1.83% | % Inhibition (1 µM) [2]: 8.39% | % Inhibition (1 µM) (Nicotinic Ni): 2.10% | % Inhibition (1 µM) [3]: 0.00% | % Inhibition (1 µM) (Adenosine A2): 5.86% | % Inhibition (1 µM) (Adenosine A1): 2.12% | % Inhibition (1 µM) (GABA- A (BZ central)): 2.78% | % Inhibition (1 µM) [4]: 4.02% | % Inhibition (1 µM) (Histamine H3): 0.00% | % Inhibition (1 µM) (Opiate (Non-selective)): 43.44% | % Inhibition (1 µM) [5]: 3.80% | % Inhibition (1 µM) (Serotonin 5-HT2A): 30.56% | % Inhibition (1 µM) (Dopamine D1): 2.32% | % Inhibition (1 µM) [6]: 20.98% | % Inhibition (1 µM) [7]: 1.91% | % Inhibition (1 µM) (GABA -B): 8.19% | % Inhibition (1 µM) (Serotonin 5-HT3 (Human)): 7.36% | % Inhibition (1 µM) (Glutamate (Kainate)): 1.50% | % Inhibition (1 µM) [8]: 1.13% | Inhibition in 28 standard target binding profile [9]: lower than 50% | % Inhibition (1 µM) (Glutamate (AMPA)): 3.27% | % Inhibition (1 µM) (Sigma (Non-selective)): 24.20% | IC50 (GlyT-1 [10]): 21.4 ± 8.4 nM | % Inhibition (1 µM) (Dopamine D2): 1.00% | % Inhibition (1 µM) [11]: 8.17% | % Inhibition (1 µM) (Histamine H2): 3.80% | % Inhibition (1 µM) (Serotonin 5-HT1A): 35.22% | % Inhibition (1 µM) (Muscarinic M1): 8.35%

— paper PMC3121759 (PLoS ONE, 2011)
